From patent US7811352B2, “Fertilizer compositions and methods of using” (priority 2005, dated 2010)
Marks after values point to notes of the source that are not given here.

Tests used:
Type in all cases: in vivo
[1] = system: Bermuda grass; assay: Turfgrass quality and color ratings, Bermuda grass golf course fairways (Example 13); details: scale 1-10
Description: In this Example, the effect of a fertilizer comprising lysine on turfgrass growth was examined. The effects of lysine (HCl) and LIQUID LYSINE on a common type of golf course fairway quality turfgrass (Bermuda green) were compared with those of CoRoN® brand fertilizer.
Six fertilizer treatments comprising two concentrations of each fertilizer composition (Coron® (N—P—K, 14-2-14), LIQUID LYSINE (N—P—K, 10-2-1), and lysine (HCl) (N—P—K, 15-2-1)) were prepared and applied to 3 replications of Bermuda grass for use on golf course fairways. The lysine (HCl) was applied as a granular using a Scotts 2 foot drop spreader on a setting of 4.5. The solutions of LIQUID LYSINE and Coran were applied using a Birchmeier backpack sprayer with a 5 foot spray pattern. Each fertilizer treatment was applied in concentrations 3.0 lb N/1000 ft^2 and 6.0 lb N/1000 ft^2. Plot size was 5 ft×60 ft set up as a randomized complete block. Irrigation was applied following application, Plots were rated for turfgrass quality and color (scale of 1-10 where 10=dark green turf 1=dead/brown turf and 6=minimally acceptable turf) and phytotoxicity (% burn) throughout the study period and compared with two untreated plots. […] All data was subject to statistical analysis and significant means were determined.

[2] = system: green height, creeping bentgrass; assay: Injury rating of green height creeping bentgrass after fertilization (Example 4); details: about two weeks after application
Description: In this Example, the efficacy of fertilizers on green height, creeping bentgrass was examined. Fertilizer compositions according to several embodiments of the present disclosure were prepared and compared to the commercial fertilizer products, urea 46-0-0 (granular) fertilizer, Lebanon fertilizer 21-0-12 (granular, commercially available from Lebanon Seaboard Corporation, Lebanon, Pa.) and Milorganite 6-2-0 (granular, commercially available from Milorganite, Milwaukee, Wis.). The fertilizer compositions were applied to the turf grass prior to winter dormancy of the turf at a rate equivalent to supplying about 1.0 pounds of nitrogen (N) per 1000 square feet. Each of the fertilizer compositions were applied at substantially equal rates of pounds (lbs) of nitrogen (N) per 1000 square feet. Table 1 illustrates the response of green height (i.e., the height of grass on golf course green), creeping bentgrass to fertilization using various exemplary fertilizers of the present invention, taken about two weeks after application of the fertilizer. The letters in the Color and Injury columns correspond to Duncan's Multiple Range Test. Numbers (means) in a column followed by the same letter are not statistically different at P=0.05.

[3] = system: fairway height, creeping bentgrass; assay: Injury rating of fairway height creeping bentgrass after fertilization (Example 6); details: about two weeks after application
Description: In this Example, the efficacy of fertilizers on fairway height, creeping bentgrass was examined. Fertilizer compositions according to several embodiments of the present disclosure were prepared and compared to the commercial fertilizer products, urea 46-0-0 (granular) fertilizer, Lebanon fertilizer 21-0-12 (granular, commercially available from Lebanon Seaboard Corporation, Lebanon, Pa.) and Milorganite 6-2-0 (granular, commercially available from Milorganite, Milwaukee, Wis.). The fertilizer compositions were applied to turf prior to winter dormancy at a rate equivalent to supplying about 1.0 pounds of nitrogen (N) per 1000 square feet. Each of the fertilizer compositions were applied at substantially equal rates of lbs of nitrogen (N) per 1000 square feet. Table 3 illustrates the response of fairway height, creeping bentgrass to fertilization using various exemplary fertilizers of the present invention, taken about two weeks after application of the fertilizer. The letters in the Color and Injury columns correspond to Duncan's Multiple Range Test. Numbers (means) in a column followed by the same letter are not statistically different at P=0.05.

[4] = system: Bermuda grass; assay: Phytotoxicity rating, Bermuda grass fairway (Example 10); details: scale 0-5, 5=worst
Source text: In this Example, the effect of a fertilizer comprising lysine on warm season turfgrass growth was examined. The effects of lysine (HCl) and LIQUID LYSINE on a common type of golf course fairway quality turfgrass (Bermuda grass) were compared with those of urea and Milorganite.
Fifteen fertilizer treatments comprising three concentrations of each fertilizer composition (Milorganite (N—P—K, 6-2-0), urea (N—P—K, 46-0-0), LIQUID LYSINE (N—P—K, 10-2-1), and both granular and aqueous lysine (HCl) (N—P—K, 15-2-1)) were prepared and applied to 4 replications of Bermuda grass. The aqueous lysine (HCl) was dissolved in water prior to application. Each fertilizer treatment was applied in concentrations of 0.5 lb N/1000 ft^2/month, 1.0 lb N/1000 ft^2/month and 3.0 lb N/1000 ft^2/month. The urea, LIQUID LYSINE and aqueous lysine (HCl) were applied as foliar liquids, while Milorganite and granular lysine (HCl) were applied as granular fertilizers Plot size was 1 m×2 m set up as a randomized complete block. Plots were mowed at 0.5 inches before fertilizer application. Irrigation (0.15 inch) was applied following application. Plots were rated for turfgrass quality and color (scale of 1-10 where 10=dark green turf, 1=dead/brown turf, and 6=minimally acceptable turf) and phytotoxicity (scale of 0-5, where 5=worst, and 2=minimally objectionable) throughout the study period. Quality, color, and phytotoxicity were measured on 2 days before application (day −2) and day 2, day 5, day 15 and day 21 after application. All data was subject to statistical analysis and significant means were determined. Average turfgrass quality ratings for the treatments are presented in Table 9 and the quality results for application rates of 1.0 lb N/1000 ft^2/month are graphically presented in FIG. 4.

[5] = Rate 3.0 lb N/1000 ft^2, Day 12
[6] = Rate 3.0 lb N/1000 ft^2, Day 19
[7] = Rate 3.0 lb N/1000 ft^2, Day 26
[8] = Rate 3.0 lb N/1000 ft^2, Day 33
[9] = Rate 3.0 lb N/1000 ft^2, Day 40
[10] = Rate 3.0 lb N/1000 ft^2, Day 47
[11] = Rate 6.0 lb N/1000 ft^2, Day 12
[12] = Rate 6.0 lb N/1000 ft^2, Day 19
[13] = Rate 6.0 lb N/1000 ft^2, Day 26
[14] = Rate 6.0 lb N/1000 ft^2, Day 33
[15] = Rate 6.0 lb N/1000 ft^2, Day 40
[16] = Rate 6.0 lb N/1000 ft^2, Day 47
[17] = 1.09 Lbs. product/1000 square feet
[18] = 2.17 Lbs. product/1000 square feet
[19] = 6.51 Lbs. product/1000 square feet

Cl.NCCCC[C@H](N)C(=O)O [Lys (HCl) 15% N, L-lysine monohydrochloride]
Color Ratings - Bermuda Grass ([1]; Rate 3.0 lb N/1000 ft^2, Day 7): 5.7ab | Quality Ratings - Bermuda Grass ([1]; Rate 3.0 lb N/1000 ft^2, Day 7): 6.7a | Color Ratings - Bermuda Grass [1, 5]: 6.0b | Quality Ratings - Bermuda Grass [1, 5]: 7.3ab | Color Ratings - Bermuda Grass [1, 6]: 6.7a | Quality Ratings - Bermuda Grass [1, 6]: 7.3ab | Color Ratings - Bermuda Grass [1, 7]: 7.3a | Quality Ratings - Bermuda Grass [1, 7]: 7.7ab | Color Ratings - Bermuda Grass [1, 8]: 7.7ab | Quality Ratings - Bermuda Grass [1, 8]: 8.0a | Color Ratings - Bermuda Grass [1, 9]: 7.0b | Quality Ratings - Bermuda Grass [1, 9]: 7.0b | Color Ratings - Bermuda Grass [1, 10]: 7.0bc | Quality Ratings - Bermuda Grass [1, 10]: 7.3ab | Color Ratings - Bermuda Grass ([1]; Rate 6.0 lb N/1000 ft^2, Day 7): 5.3ab | Quality Ratings - Bermuda Grass ([1]; Rate 6.0 lb N/1000 ft^2, Day 7): 6.7a | Color Ratings - Bermuda Grass [1, 11]: 6.7a | Quality Ratings - Bermuda Grass [1, 11]: 7.3ab | Color Ratings - Bermuda Grass [1, 12]: 7.0a | Quality Ratings - Bermuda Grass [1, 12]: 7.3ab | Color Ratings - Bermuda Grass [1, 13]: 7.7a | Quality Ratings - Bermuda Grass [1, 13]: 7.7ab | Color Ratings - Bermuda Grass [1, 14]: 7.7ab | Quality Ratings - Bermuda Grass [1, 14]: 7.7a | Color Ratings - Bermuda Grass [1, 15]: 7.3ab | Quality Ratings - Bermuda Grass [1, 15]: 7.0b | Color Ratings - Bermuda Grass [1, 16]: 7.3ab | Quality Ratings - Bermuda Grass [1, 16]: 7.7a

NC(N)=O [Urea, urea, reference compound]
Injury 1-9 (9 = no injury) [2, 17]: 8.0^a,b,c | Injury 1-9 (9 = no injury) [2, 18]: 8.7^a | Injury 1-9 (9 = no injury) [2, 19]: 8.3^a,b | Injury 1-9 (9 = no injury) [3, 17]: 8.7^a,b | Injury 1-9 (9 = no injury) [3, 18]: 7.7^a,b | Injury 1-9 (9 = no injury) [3, 19]: 8.7^a,b | Phytotoxicity - Bermuda Grass ([4]; Monthly Rate 0.5 lbs N/1000 ft^2, Day 2): 0.0b | Phytotoxicity - Bermuda Grass ([4]; Monthly Rate 0.5 lbs N/1000 ft^2, Day 5): 0 | Phytotoxicity - Bermuda Grass ([4]; Monthly Rate 0.5 lbs N/1000 ft^2, Day 15): 0 | Phytotoxicity - Bermuda Grass ([4]; Monthly Rate 0.5 lbs N/1000 ft^2, Day 21): 0 | Phytotoxicity - Bermuda Grass ([4]; Monthly Rate 0.5 lbs N/1000 ft^2, Day −2 (before application)): 0 | Phytotoxicity - Bermuda Grass ([4]; Monthly Rate 1.0 lbs N/1000 ft^2, Day 2): 0.0b | Phytotoxicity - Bermuda Grass ([4]; Monthly Rate 1.0 lbs N/1000 ft^2, Day 5): 0 | Phytotoxicity - Bermuda Grass ([4]; Monthly Rate 1.0 lbs N/1000 ft^2, Day 15): 0 | Phytotoxicity - Bermuda Grass ([4]; Monthly Rate 1.0 lbs N/1000 ft^2, Day 21): 0 | Phytotoxicity - Bermuda Grass ([4]; Monthly Rate 1.0 lbs N/1000 ft^2, Day −2 (before application)): 0 | Phytotoxicity - Bermuda Grass ([4]; Monthly Rate 3.0 lbs N/1000 ft^2, Day 2): 0.0b | Phytotoxicity - Bermuda Grass ([4]; Monthly Rate 3.0 lbs N/1000 ft^2, Day 5): 0 | Phytotoxicity - Bermuda Grass ([4]; Monthly Rate 3.0 lbs N/1000 ft^2, Day 15): 0 | Phytotoxicity - Bermuda Grass ([4]; Monthly Rate 3.0 lbs N/1000 ft^2, Day 21): 0 | Phytotoxicity - Bermuda Grass ([4]; Monthly Rate 3.0 lbs N/1000 ft^2, Day −2 (before application)): 0
